Assay results from patent US11773146B2, “Disruption of the WAVE3 protein complex for suppression of invasion and metastasis” (UNIVERSITY OF GEORGIA RESEARCH FOUNDATION, INC., priority 2015, dated 2023).
Entries after “also recorded” stand apart in the source; their conditions may differ. Bridges are numbered along the chain shown (N, C = ends). Where no end group is shown, it is not given here. [ ]: non-standard residue; d: D form. S5 = C=CCCC[C@](C)(N)C(=O)O

Experiments:
[1] = system: MDA-MB-231 and Hs578T cells; assay: Cell proliferation, viability and toxicity with WANT3; format: cell-based
Description: (§1) MDA-MB-231, Hs578T and T47D breast cancer cell lines were obtained directly from American Type Culture Collection (Rockville, Md.). MDA-MB-231 and T47D and have been verified using SNP-CGH (Teng Y, et al. Int J Cancer 2011 129:2825-2835) for characteristic cytogenetic changes. The ATCC Cell Authentication Testing service confirmed the identity of Hs578T using STR DNA fingerprinting analysis. Standard cell culture, transient transfections, RT-PCR, western blotting, immunoprecipitation (IP), flow cytometry, Biotin-Avidin pulldown, lentiviral transduction, cell proliferation and Transwell invasion assays were carried out as described previously (Teng Y, et al. Int J Cancer 2011 129:2825-2835; Teng Y, et al. J Biol Chem 2012 287:10051-10059; Teng Y, et al. Carcinogenesis 2013 34:1994-1999).

NCKAP1 = assay: Western blot of NCKAP1 protein after WANT3; format: cell-based; settings: 10 μM
Description: as §1

MDA-MB-231 cells [2] = assay: Transwell invasion assay (WANT peptides); format: cell-based
Description: There are currently no small molecules that target WASF3 function directly, but targeting the WRC may provide a means of suppressing invasion.

[3] = molecular target: T1, WASF3 complex (Homo sapiens); assay: IP of WASF3 complex after WANT3 or WAHM1 (phosphoactivation, RAC1 engagement); format: cell-based; settings: MDA-MB-231 cells
T1 construct: endogenous in cells; host or cells: MDA-MB-231
Description: as §1

MDA-MB-231 cells [4] = settings: 37° C., after 7 days
Procedure: To evaluate the stability of these SPs, WANT3 was incubated in serum containing medium for varying lengths of time (1-7 days) at 37° C. and then this medium was added to MDA-MB-231 cells to evaluate the ability of the preincubated peptides to suppress invasion.

WASF3 = assay: Western blot of WASF3 stability after WANT3; format: cell-based
Description: as §1

[5] = concentration range of 2.5-20 μM

T1 sequence (Q7L576 whole entry, one chain of several): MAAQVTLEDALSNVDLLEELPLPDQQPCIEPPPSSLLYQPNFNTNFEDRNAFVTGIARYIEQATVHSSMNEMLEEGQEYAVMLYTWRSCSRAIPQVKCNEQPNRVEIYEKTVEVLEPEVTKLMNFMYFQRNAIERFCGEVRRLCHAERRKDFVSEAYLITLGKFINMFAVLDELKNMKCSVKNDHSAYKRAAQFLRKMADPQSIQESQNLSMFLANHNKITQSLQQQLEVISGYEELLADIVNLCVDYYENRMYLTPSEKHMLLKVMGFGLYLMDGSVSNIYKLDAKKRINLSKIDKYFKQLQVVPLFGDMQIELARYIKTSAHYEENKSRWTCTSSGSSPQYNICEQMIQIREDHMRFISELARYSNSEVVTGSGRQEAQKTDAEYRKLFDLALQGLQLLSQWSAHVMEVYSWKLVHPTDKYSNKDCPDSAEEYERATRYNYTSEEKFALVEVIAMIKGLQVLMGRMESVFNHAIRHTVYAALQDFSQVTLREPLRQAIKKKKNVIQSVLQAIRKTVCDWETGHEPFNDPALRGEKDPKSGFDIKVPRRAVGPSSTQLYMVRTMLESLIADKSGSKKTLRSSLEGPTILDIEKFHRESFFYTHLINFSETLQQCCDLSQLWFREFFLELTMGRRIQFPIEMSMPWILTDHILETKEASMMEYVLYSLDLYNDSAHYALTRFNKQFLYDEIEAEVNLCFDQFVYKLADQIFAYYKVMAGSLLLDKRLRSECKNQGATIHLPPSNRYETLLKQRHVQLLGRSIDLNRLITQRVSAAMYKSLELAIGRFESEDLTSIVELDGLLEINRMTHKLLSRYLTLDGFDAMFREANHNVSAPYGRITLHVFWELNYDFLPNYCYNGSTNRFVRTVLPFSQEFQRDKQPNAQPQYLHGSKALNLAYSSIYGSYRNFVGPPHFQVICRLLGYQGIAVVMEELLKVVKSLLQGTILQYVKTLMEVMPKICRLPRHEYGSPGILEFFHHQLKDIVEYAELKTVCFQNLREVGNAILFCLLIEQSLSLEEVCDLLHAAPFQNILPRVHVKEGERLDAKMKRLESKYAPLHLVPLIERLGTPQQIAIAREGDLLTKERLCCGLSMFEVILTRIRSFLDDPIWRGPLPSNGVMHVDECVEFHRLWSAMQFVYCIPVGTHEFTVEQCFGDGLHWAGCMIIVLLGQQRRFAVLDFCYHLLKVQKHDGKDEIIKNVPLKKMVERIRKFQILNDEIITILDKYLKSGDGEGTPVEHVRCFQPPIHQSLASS

VLXRNAXHAVYK (VL[S5]RNA[S5]HAVYK-NH2; staple 3-7; not fully specified (N-terminus); also: FITC label (in alias), site not given here) [WANT3, WASF3-NCKAP1 Target stapled peptide, NCKAP1 peptide mimic; X is (S)-2-(4′-pentenyl)alanine]
cell proliferation ([1]; 10 μM): without affecting cell proliferation
in vitro cell toxicity ([1]; 10 μM): minimal
cell proliferation rate [1, 5]: does not affect
viability [1, 5]: does not affect
NCKAP1 protein levels (NCKAP1): loss of the NCKAP1 protein; also recorded: suppresses both WASF3 and NCKAP1 protein levels
suppression of invasion, WAHM1 compared with WANT3 (MDA-MB-231 cells [2]): comparable suppression of invasion
invasion potential (MDA-MB-231 cells [2]; final concentration of 10 μM): highly significant suppression of invasion; also recorded: significantly suppresses
invasion at increased concentration (MDA-MB-231 cells [2]; high dose 20 μM compared with low dose): greater suppression of invasion; also recorded: more remarkable reduction
engagement of RAC1 with the WASF3 complex, WANT3 compared with WHAM1 [3]: more significant
phosphoactivation of WASF3, WANT3 compared with WAHM1 [3]: more significantly
suppression of invasion after preincubation in serum-containing medium (MDA-MB-231 cells [4]): residual effect on suppression of invasion
concentration achieving maximal effect on WASF3 stability (WASF3): 20 µM
WASF3 stability / protein levels (WASF3; 10 μM, compared with scrambled peptide): significant destabilization of WASF3; also recorded: suppresses both WASF3 and NCKAP1 protein levels
destabilization of WASF3, WANT3 compared with WHAM1 (WASF3; MDA-MB-231 cells): more efficient in destabilizing WASF3
dose dependence of WASF3 destabilization (WASF3; MDA-MB-231 cells): suppresses WASF3 protein levels in a dose-dependent manner; also recorded: dose-dependent destabilization of the WASF3 protein
